In patent publication EP4818172A1, “ASCORBIC ACID DERIVATIVES AND COSMETIC CONTAINING SAME” (Seiwa Kasei Co., Ltd., priority 2023, dated 2025):

Experiments:
[1] = tested on: Normal human dermal fibroblasts (NHDF); test: Hyaluronic acid production promoting effect (ELISA of supernatant); format: cell-based; conditions: sample at 10 mM or less in serum-free D-MEM, cultured 48 hours, % of control group (100%), N=3
Protocol: Normal human dermal fibroblasts (NHDF) were prepared in D-MEM containing 5% (v/v) fetal bovine serum to a cell density of 2.5 × 10^4 cells/well, and then pre-incubated on a 96-well plate for 24 hours. After removing the medium, samples prepared in serum-free D-MEM were added to each well and cultured for 48 hours. After the culture was completed, the amount of hyaluronic acid in the supernatant was quantified by ELISA. Measurements were performed in triplicate (N=3).
(§1) The amount of hyaluronic acid produced when the sample was measured at a concentration of 10 mM or less was compared with that of the control group, and the results (% values when the control group is set to 100%) are shown in Tables 18 to 20 based on the following criteria. • <100%: ± • 100-120%: + • 120%<: ++ [Table 18]

[2] = Stability test -1: odor and coloration scored by 10 panelists; format: physicochemical; conditions: Test Example 1, aqueous solution, total score of 10 panelists
Protocol: (§2) For each of the samples of Synthesis Examples 1 to 6, 1% aqueous solutions were adjusted to pH 3, 5, 7, 8, and 9 with a dilute potassium hydroxide aqueous solution, and then placed in 50 mL screw tubes and • 2: Color changes compared to immediately after preparation. • 1: Strongly colored compared to immediately after preparation. Based on the results of the above evaluation, the following classification was made: • ○: Total score of 10 panelists is 25 or more • △: Total score of 10 panelists is 16-24 • ×: The total score of 10 panelists is 15 or less [Table 10]

[3] = Stability test -1: residual rate of 1% aqueous solutions at pH 3 to 9 on storage; format: physicochemical; conditions: for Residual Rate After 2 weeks / Residual Rate After 4 weeks: 1% aqueous solution
[4] = tested on: Normal human dermal fibroblasts; test: Collagen production promoting effect (ELISA of free collagen in supernatant); format: cell-based; conditions: sample at 10 mM or less, cultured 48 hours, % of control group (100%), N=3
Protocol: Normal human dermal fibroblasts were prepared in D-MEM containing 5% (v/v) fetal bovine serum to a cell density of 2.5 × 10^4 cell s /well, and then pre-incubated for 24 hours on a 96-well plate. After removing the medium, samples prepared to a predetermined concentration in D-MEM containing 5% (v/v) fetal bovine serum were added to each well and cultured for 48 hours. After the culture was completed, the amount of free collagen in the supernatant was quantified by ELISA. Measurements were performed in triplicate (N=3).
as §1, with “collagen” for “hyaluronic acid”, “was” for “is”, “Table 17” for “Tables 18 to 20”, “100-140%:” for “100-120%:”, “140%<:” for “120%<:”, “17]” for “18]”

[5] = Stability test -2: residual rate in cream of pH 7 or 9 stored at 50°C; format: physicochemical; conditions: cream with 4.0 W/W% derivative
Protocol: (§3) For each of the samples of Synthesis Examples 9 to 32, (a) and (b) shown in Table 12 were each heated and mixed. After cooling, (c) shown in Table 12 was added to prepare a cream with a pH of 7 or 9. The sample was stored at 50°C for 4 weeks, and the residual rate was determined in the same manner as in Test Example 1 and evaluated according to the criteria described below. The odor and coloration were also evaluated according to the same method and criteria as in Test Example 1. The results regarding the residual rate are shown in Tables 13 and 14, and the results regarding the odor and coloration are shown in Tables 15 and 16.
• ⊚: 95% or more • ○: 85% or more, less than 95% • ×: Less than 85% [Table 12]

[6] = Stability test -2: odor and coloration of cream stored at 50°C; format: physicochemical; conditions: Test Example 2, cream stored at 50°C, total score of 10 panelists
Protocol: as §2, §3

Row | Residual Rate After 2 weeks ([5]; pH7, stored at 50°C) | Residual Rate After 4 weeks ([5]; pH7, stored at 50°C) | Residual Rate After 2 weeks ([5]; pH9, stored at 50°C) | Residual Rate After 4 weeks ([5]; pH9, stored at 50°C) | Odor After 4 weeks [6] | Molecule | Hyaluronic acid production-promoting effect [1] | Collagen production-promoting effect [4] | Coloration After 2 weeks [6] | Odor After 2 weeks [6] | Coloration After 4 weeks [6] | also measured
1 |  |  |  |  |  | O=C1O[C@H]([C@@H](O)CO)C(O)=C1O [Ascorbic acid] | ± (<100%) |  |  |  |  | Coloration After 2 weeks [2]: Δ; Odor After 2 weeks [2]: Δ; Coloration After 4 weeks [2]: × (The total score of 10 panelists is 15 or less); Odor After 4 weeks [2]: × (The total score of 10 panelists is 15 or less); Residual Rate After 2 weeks ([3]; pH3, stored at 50°C): ○; Residual Rate After 4 weeks ([3]; pH3, stored at 50°C): Δ; Residual Rate After 2 weeks ([3]; pH5, stored at 50°C): ○; Residual Rate After 4 weeks ([3]; pH5, stored at 50°C): ×; Residual Rate After 2 weeks ([3]; pH7, stored at 50°C): ×; Residual Rate After 4 weeks ([3]; pH7, stored at 50°C): ×; Residual Rate After 2 weeks ([3]; pH8, stored at 50°C): ×; Residual Rate After 4 weeks ([3]; pH8, stored at 50°C): ×; Residual Rate After 2 weeks ([3]; pH9, stored at 50°C): ×; Residual Rate After 4 weeks ([3]; pH9, stored at 50°C): ×; residual rate ([3]; Test Example 1, pH 7 to 9, stored at 50°C, after two weeks): less than 30%
2 | ⊚ (95% or more) | ⊚ (95% or more) | ⊚ (95% or more) | ⊚ (95% or more) | Δ | CCCCCCCCCCCCCCCC(=O)OCC(OC(=O)CCCCCCCCCCCCCCC)C1OC(=O)C2=C1OCCCO2 (stereo not shown) [Synthesis Example 27, 5,6-O-dipalmitoyl-2,3-O-(1,3-propanediyl) ascorbic acid] | ++ (120%<) | ++ (140%<) | ○ (Total score of 10 panelists is 25 or more) | ○ (Total score of 10 panelists is 25 or more) | Δ | 
3 | ⊚ (95% or more) | ⊚ (95% or more) | ⊚ (95% or more) | ⊚ (95% or more) | Δ | CCCC(=O)OCC(OC(=O)CCC)C1OC(=O)C2=C1OCCCO2 (stereo not shown) [synthesis example 21, 5,6-O-dibutanoyl-2,3-O-(1,3-propanediyl) ascorbic acid] | ++ (120%<) | ++ (140%<) | ○ (Total score of 10 panelists is 25 or more) | ○ (Total score of 10 panelists is 25 or more) | ○ (Total score of 10 panelists is 25 or more) | 
4 | ⊚ (95% or more) | ⊚ (95% or more) | ⊚ (95% or more) | ○ (85% or more, less than 95%) | Δ | CCCCCCCCCCCCCCCC(=O)OCC(O)C1OC(=O)C2=C1OCCCO2 (stereo not shown) [synthesis example 26, 6-O-palmitoyl-2,3-O-(1,3-propanediyl) ascorbic acid] | ++ (120%<) |  | ○ (Total score of 10 panelists is 25 or more) | ○ (Total score of 10 panelists is 25 or more) | Δ | 
5 | ⊚ (95% or more) | ⊚ (95% or more) | ⊚ (95% or more) | ⊚ (95% or more) | Δ | CC(C)CCCCCCCCCCCCCCC(=O)OCC(OC(=O)CCCCCCCCCCCCCCC(C)C)C1OC(=O)C2=C1OCCCO2 (stereo not shown) [synthesis example 29, 5,6-O-diisostearoyl-2,3-O-(1,3-propanediyl) ascorbic acid] | + (100-120%) | ++ (140%<) | ○ (Total score of 10 panelists is 25 or more) | ○ (Total score of 10 panelists is 25 or more) | ○ (Total score of 10 panelists is 25 or more) | 
6 | ⊚ (95% or more) | ⊚ (95% or more) | ⊚ (95% or more) | ⊚ (95% or more) | Δ | CC(C)CCCCCCCCCCCCCCC(=O)OCC(O)C1OC(=O)C2=C1OCCO2 (stereo not shown) [synthesis example 31, 6-O-isostearoyl-2,3-O-(1,2-ethanediyl) ascorbic acid] | ++ (120%<) |  | ○ (Total score of 10 panelists is 25 or more) | ○ (Total score of 10 panelists is 25 or more) | ○ (Total score of 10 panelists is 25 or more) | 
7 | ⊚ (95% or more) | ⊚ (95% or more) | ⊚ (95% or more) | ⊚ (95% or more) | Δ | CCCCCCCC(=O)OCC(OC(=O)CCCCCCC)C1OC(=O)C2=C1OCCCCO2 (stereo not shown) [synthetic example 12, 5,6-O-dioctanoyl-2,3-O-(1,4-butanediyl) ascorbic acid] | ++ (120%<) | ++ (140%<) | ○ (Total score of 10 panelists is 25 or more) | ○ (Total score of 10 panelists is 25 or more) | ○ (Total score of 10 panelists is 25 or more) | 
8 | ⊚ (95% or more) | ⊚ (95% or more) | ⊚ (95% or more) | ⊚ (95% or more) | Δ | CCCCCCCCCCCCCCCC(=O)OCC(OC(=O)CCCCCCCCCCCCCCC)C1OC(=O)C2=C1OCCCCO2 (stereo not shown) [synthetic example 16, 5,6-O-dipalmitoyl-2,3-O-(1,4-butanediyl) ascorbic acid] | ++ (120%<) |  | ○ (Total score of 10 panelists is 25 or more) | ○ (Total score of 10 panelists is 25 or more) | ○ (Total score of 10 panelists is 25 or more) | 
9 | ⊚ (95% or more) | ⊚ (95% or more) | ⊚ (95% or more) | ⊚ (95% or more) | Δ | CC(C)CCCCCCCCCCCCCCC(=O)OCC(O)C1OC(=O)C2=C1OCCCO2 (stereo not shown) [synthetic example 28, 6-O-isostearoyl-2,3-O-(1,3-propanediyl) ascorbic acid] | ++ (120%<) |  | ○ (Total score of 10 panelists is 25 or more) | ○ (Total score of 10 panelists is 25 or more) | ○ (Total score of 10 panelists is 25 or more) | 
10 |  |  |  |  |  | Bisglyceryl ascorbic acid [reference compound] |  |  |  |  |  | Coloration After 2 weeks [2]: Δ; Odor After 2 weeks [2]: Δ; Coloration After 4 weeks [2]: Δ; Odor After 4 weeks [2]: Δ; Residual Rate After 2 weeks ([3]; pH3, stored at 50°C): ⊚; Residual Rate After 4 weeks ([3]; pH3, stored at 50°C): ⊚; Residual Rate After 2 weeks ([3]; pH5, stored at 50°C): ⊚; Residual Rate After 4 weeks ([3]; pH5, stored at 50°C): ⊚; Residual Rate After 2 weeks ([3]; pH7, stored at 50°C): ×; Residual Rate After 4 weeks ([3]; pH7, stored at 50°C): ×; Residual Rate After 2 weeks ([3]; pH8, stored at 50°C): ×; Residual Rate After 4 weeks ([3]; pH8, stored at 50°C): ×; Residual Rate After 2 weeks ([3]; pH9, stored at 50°C): ×; Residual Rate After 4 weeks ([3]; pH9, stored at 50°C): ×
